From US20190358181A1, “METHODS FOR AUTISM SPECTRUM DISORDER PHARMACOTHERAPY” (priority 2017, published 2019)

System: 610 metabolites from 63 biochemical pathways
Assay: Targeted broad-spectrum plasma metabolomic analysis (LC-MS/MS), paired pre-infusion vs post-infusion (2-days and 6-weeks)
Assay type: in vivo, human
Conditions: for Linear Ratio / VIP Score / Z Abs / Z Score: plasma
Method: Targeted, broad-spectrum, plasma metabolomic analysis of 610 metabolites from 63 biochemical pathways was performed by high performance liquid chromatography and tandem mass spectrometry (LC-MS/MS) on the samples collected from patients in Example 1. Venous blood was collected between the hours of 8 am and 5 pm, at least 3 hours after the last meal, into lithium-heparin vacutainer tubes (BD #367884). Plasma was separated by centrifugation at 900 g×10 minutes at room temperature within one hour of collection. The resulting fresh lithium-heparin plasma was transferred to labeled 1.2 ml or 2.0 ml externally threaded cryotubes with a minimum headspace air gap for storage at −80° C. for analysis. Samples were analyzed on an AB SCIEX QTRAP 5500 triple quadrupole mass spectrometer equipped with a Turbo V electrospray ionization (ESI) source, Shimadzu LC-20A UHPLC system, and a PAL CTC autosampler. Typically, 90 μl of plasma was thawed on ice and transferred to a 1.7 ml Eppendorf tube. Five (5.0) μl of a cocktail containing 25-35 commercial stable isotope internal standards, and 5.0 μl of 57 stable isotope internal standards that were custom-synthesized in E. coli NCM3722, Caenorhabditis elegans N2, and Komagataella phaffii (ATCC 76273; formerly known as Pichia pastoris) by metabolic labeling with 13C-glucose and 13C-bicarbonate, were added, mixed, and incubated for 10 min at 20° C. to permit small molecules and vitamins in the internal standards to associate with plasma binding proteins. Macromolecules (protein, DNA, RNA, glycans, etc.) were precipitated by extraction with 4 volumes (400 μl) of cold (−20° C.), acetonitrile:methanol (50:50) (LCMS grade, Cat #LC015-2.5 and GC230-4, Burdick & Jackson, Honeywell), vortexed vigorously, and incubated on crushed ice for 10 min, then removed by centrifugation at 16,000 g×10 min at 4° C. The supernatants containing the extracted metabolites and internal standards in the resulting 40:40:20 solvent mix of acetonitrile:methanol:water were transferred to labeled cryotubes and stored at −80° C. for LCMS/MS analysis.
LC-MS/MS analysis was performed by scheduled multiple reaction monitoring (sMRM) under Analyst v1.6.2 software control in both negative and positive mode with rapid polarity switching (50 ms). Nitrogen was used for curtain gas (set to 30), collision gas (set to high), ion source gas 1 and 2 (set to 35). The source temperature was 500° C. Spray voltage was set to −4500 V in negative mode and 5500 V in positive mode. The values for Q1 and Q3 mass-to-charge ratios (m/z), declustering potential (DP), entrance potential (EP), collision energy (CE), and collision cell exit potential (CXP) were determined and optimized for each MRM for each metabolite. Ten microliters of extract was injected by PAL CTC autosampler via a 10 μl stainless steel loop into a 250 mm×2.0 mm, 4 μm polymer based NH2 HPLC column (Asahipak NH2P-40 2E, Showa Denko America, Inc., NY) held at 25° C. for chromatographic separation. The mobile phase was solvent A: 95% water with 20 mM (NH4)2CO3 (Sigma, Fluka Cat #74415-250G-F), 5% acetonitrile, and 38 mM NH4OH (Sigma, Fluka Cat #17837-100ML), final pH 9.75; solvent B: 100% acetonitrile. Separation was achieved using the following gradient: 0-3.5 min: 95% B, 3.6-8 min: 85% B, 8.1-13 min: 75% B, 13.5-35 min: 0% B, 36-46 min: 95% B, 46.1 min: end. The flow rate was 200 μl/min. Pump pressures ranged from 920-2600 psi over the course of the gradient. All the samples were kept at 4° C. during analysis. The chromatographic peaks were identified using MultiQuant (v3.0, Sciex), confirmed by manual inspection, and the peak areas integrated. […]

[1] = Fatty Acid Oxidation and Synthesis, 6-weeks
[2] = GABA, Glutamate, Arginine, Ornithine, Proline, 6-weeks
[3] = GABA, Glutamate, Arginine, Ornithine, 2-days
[4] = Gamma-Glutamyl and other Dipeptides, 2-days
[5] = Gamma-Glutamyl and other Dipeptides, 6-weeks
[6] = Gamma-glutamyl-Alanine, 6-weeks
[7] = Glycolysis and Gluconeogenesis Metabolism, 2-days
[8] = Glycolysis and Gluconeogenesis Metabolism, 6-weeks
[9] = Glycosphingolipid Metabolism, 2-days
[10] = Hexose Disaccharide Pool, 6-weeks
[11] = Histidine, Histamine, Carnosine Metabolism, 2-days
[12] = Histidine, Histamine, Carnosine Metabolism, 6-weeks
[13] = Nitric Oxide, Superoxide, Peroxide Metabolism, 6-weeks
[14] = Nitric Oxide, Superoxide, Peroxide, 2-days
[15] = Phospholipid Metabolism, 2-days
[16] = Phospholipid Metabolism, 6-weeks

## Cc1ccc(C(=O)Nc2ccc(S(=O)(=O)O)c3cc(S(=O)(=O)O)cc(S(=O)(=O)O)c23)cc1NC(=O)c1cccc(NC(=O)Nc2cccc(C(=O)Nc3cc(C(=O)Nc4ccc(S(=O)(=O)O)c5cc(S(=O)(=O)O)cc(S(=O)(=O)O)c45)ccc3C)c2)c1 [Suramin, suramin]
[1]
  Increased: 0
  Observed Hits in the Top 48 Metabolites: 3
[2]
  Decreased: 0
  Fold Enrichment (Obs/Exp): 3.0
  Fraction of Impact (VIP Score) Explained (% of 94.6): 4%
  Impact (Sum VIP Score): 3.9
  Increased: 2
  Observed Hits in the Top 48 Metabolites: 2
[3]
  Decreased: 0
  Fold Enrichment (Obs/Exp): 3.5
  Fraction of Impact (VIP Score) Explained (% of 119.7): 4%
  Impact (Sum VIP Score): 4.7
  Increased: 3
  Observed Hits in the Top 61 Metabolites: 3
[4]
  Decreased: 0
  Fold Enrichment (Obs/Exp): 7.1
  Fraction of Impact (VIP Score) Explained (% of 119.7): 3%
  Impact (Sum VIP Score): 3.8
  Increased: 2
  Observed Hits in the Top 61 Metabolites: 2
[5]
  Decreased: 0
  Fold Enrichment (Obs/Exp): 4.5
  Fraction of Impact (VIP Score) Explained (% of 94.6): 2%
  Impact (Sum VIP Score): 2.4
  Increased: 1
  Observed Hits in the Top 48 Metabolites: 1
[6]
  Linear Ratio: 1.644
  VIP Score: 2.353
  Z Abs: 1.725
  Z Score: 1.725
Glycerol 3-phosphate, 6-weeks
  Linear Ratio: 1.294
  VIP Score: 2.081
  Z Abs: 1.731
  Z Score: 1.731
Glycine, 6-weeks
  Linear Ratio: 1.392
  VIP Score: 2.523
  Z Abs: 1.891
  Z Score: 1.891
Glycocholic acid, 6-weeks
  Linear Ratio: 2.270
  VIP Score: 1.956
  Z Abs: 1.945
  Z Score: 1.945
[7]
  Decreased: 0
  Fold Enrichment (Obs/Exp): 2.0
  Fraction of Impact (VIP Score) Explained (% of 119.7): 4%
  Impact (Sum VIP Score): 4.3
  Increased: 2
  Observed Hits in the Top 61 Metabolites: 2
[8]
  Decreased: 0
  Fold Enrichment (Obs/Exp): 1.3
  Fraction of Impact (VIP Score) Explained (% of 94.6): 2%
  Impact (Sum VIP Score): 2.1
  Increased: 1
  Observed Hits in the Top 48 Metabolites: 1
[9]
  Decreased: 0
  Fold Enrichment (Obs/Exp): 0.6
  Fraction of Impact (VIP Score) Explained (% of 119.7): 2%
  Impact (Sum VIP Score): 2.1
  Increased: 1
  Observed Hits in the Top 61 Metabolites: 1
Guanidinoacetic acid, 6-weeks
  Linear Ratio: 1.217
  VIP Score: 1.644
  Z Abs: 1.254
  Z Score: 1.254
[10]
  Linear Ratio: 2.121
  VIP Score: 1.911
  Z Abs: 1.220
  Z Score: 1.220
Hippuric acid, 6-weeks
  Linear Ratio: 1.602
  VIP Score: 1.559
  Z Abs: 0.881
  Z Score: 0.881
Histamine, 6-weeks
  Linear Ratio: 1.219
  VIP Score: 2.279
  Z Abs: 1.312
  Z Score: 1.312
[11]
  Decreased: 0
  Fold Enrichment (Obs/Exp): 1.8
  Fraction of Impact (VIP Score) Explained (% of 119.7): 2%
  Impact (Sum VIP Score): 1.8
  Increased: 1
  Observed Hits in the Top 61 Metabolites: 1
[12]
  Decreased: 0
  Fold Enrichment (Obs/Exp): 2.2
  Fraction of Impact (VIP Score) Explained (% of 94.6): 2%
  Impact (Sum VIP Score): 2.3
  Increased: 1
  Observed Hits in the Top 48 Metabolites: 1
Hydroxyproline, 6-weeks
  Linear Ratio: 1.210
  VIP Score: 2.039
  Z Abs: 3.005
  Z Score: 3.005
Krebs Cycle, 2-days
  Decreased: 0
  Fold Enrichment (Obs/Exp): 1.6
  Fraction of Impact (VIP Score) Explained (% of 119.7): 3%
  Impact (Sum VIP Score): 3.3
  Increased: 2
  Observed Hits in the Top 61 Metabolites: 2
Krebs Cycle, 6-weeks
  Decreased: 0
  Fold Enrichment (Obs/Exp): 2.0
  Fraction of Impact (VIP Score) Explained (% of 94.6): 5%
  Impact (Sum VIP Score): 4.3
  Increased: 2
  Observed Hits in the Top 48 Metabolites: 2
L-Asparagine, 6-weeks
  Linear Ratio: 1.360
  VIP Score: 1.824
  Z Abs: 1.581
  Z Score: 1.581
L-Cystine, 6-weeks
  Linear Ratio: 1.190
  VIP Score: 1.774
  Z Abs: 1.060
  Z Score: 1.060
L-Kynurenine, 6-weeks
  Linear Ratio: 1.303
  VIP Score: 2.096
  Z Abs: 1.751
  Z Score: 1.751
L-Phenylalanine, 6-weeks
  Linear Ratio: 1.245
  VIP Score: 1.875
  Z Abs: 1.381
  Z Score: 1.381
L-Proline, 6-weeks
  Linear Ratio: 1.196
  VIP Score: 1.546
  Z Abs: 0.749
  Z Score: 0.749
L-Serine, 6-weeks
  Linear Ratio: 1.152
  VIP Score: 1.505
  Z Abs: 0.954
  Z Score: 0.954
Lathosterol, 6-weeks
  Linear Ratio: 1.284
  VIP Score: 1.844
  Z Abs: 1.079
  Z Score: 1.079
Methionine sulfoxide, 6-weeks
  Linear Ratio: 1.409
  VIP Score: 2.104
  Z Abs: 2.083
  Z Score: 2.083
Mevalonic acid, 6-weeks
  Linear Ratio: 1.386
  VIP Score: 1.673
  Z Abs: 1.036
  Z Score: 1.036
Microbiome Metabolism, 2-days
  Decreased: 0
  Fold Enrichment (Obs/Exp): 1.6
  Fraction of Impact (VIP Score) Explained (% of 119.7): 8%
  Impact (Sum VIP Score): 9.3
  Increased: 4
  Observed Hits in the Top 61 Metabolites: 4
Microbiome Metabolism, 6-weeks
  Decreased: 0
  Fold Enrichment (Obs/Exp): 2.0
  Fraction of Impact (VIP Score) Explained (% of 94.6): 9%
  Impact (Sum VIP Score): 8.4
  Increased: 4
  Observed Hits in the Top 48 Metabolites: 4
[13]
  Decreased: 0
  Fold Enrichment (Obs/Exp): 4.5
  Fraction of Impact (VIP Score) Explained (% of 94.6): 2%
  Impact (Sum VIP Score): 2.2
  Increased: 1
  Observed Hits in the Top 48 Metabolites: 1
[14]
  Decreased: 1
  Fold Enrichment (Obs/Exp): 3.5
  Fraction of Impact (VIP Score) Explained (% of 119.7): 2%
  Impact (Sum VIP Score): 1.9
  Increased: 0
  Observed Hits in the Top 61 Metabolites: 1
Octanoylcarnitine, 6-weeks
  Linear Ratio: 0.703
  VIP Score: 1.780
  Z Abs: 1.451
  Z Score: −1.451
PE (18:0/18:0), 6-weeks
  Linear Ratio: 0.644
  VIP Score: 1.555
  Z Abs: 1.331
  Z Score: −1.331
[15]
  Decreased: 3
  Fold Enrichment (Obs/Exp): 0.3
  Fraction of Impact (VIP Score) Explained (% of 119.7): 5%
  Impact (Sum VIP Score): 5.7
  Increased: 0
  Observed Hits in the Top 61 Metabolites: 3
[16]
  Decreased: 1
  Fold Enrichment (Obs/Exp): 0.1
  Fraction of Impact (VIP Score) Explained (% of 94.6): 2%
  Impact (Sum VIP Score): 1.6
  Increased: 0
  Observed Hits in the Top 48 Metabolites: 1
Purine Metabolism, 2-days
  Decreased: 5
  Fold Enrichment (Obs/Exp): 2.4
